# In patent publication US20210196720A1 (UROVANT SCIENCES GMBH, priority 2018, published 2021):
# Where two headings read alike, the source gives them in different places.
# Tests used:
# [1] = Phase 1 safety data; type: in vivo; settings: Phase 1, single 2-600 mg, multiple 25-400 mg
# Excerpt: Safety data from 16 Phase 1 studies, which include 15 completed Phase 1 studies and 1 study that was terminated early (this study was terminated for reasons unrelated to efficacy or safety) was collected.
# [2] = clinical; settings: human, 100 mg
# Excerpt: The relationship between clearance and renal function was modeled using linear regression.
# [3] = target: CYP2D6 (Homo sapiens, UniProt P10635); settings: Rutman et al. 2019; cited from earlier work
# [4] = in vivo
# [5] = Phase 2b OAB study, adverse events
# Excerpt: A placebo group was included in the main study, and a group that received tolterodine monotherapy was included in the main study and in the extension.
# [6] = Drug interaction: effect of conmed on vibegron PK; type: in vivo, human; settings: for half-life / AUC / Cmax: human, oral; for half-life: read-out: GM t1/2 (converted); for AUC / Cmax: plasma
# Excerpt: However, these interactions are not expected to be clinically significant.
# [7] = Maximum MA4 heart rate, multiple-dose Phase 1 study, day 14; type: in vivo, human
# Protocol: More intensive assessments of heart rate and blood pressure were performed in healthy volunteers in several Phase 1 studies. […] Doses ranged from 25 to 400 mg once daily for 7 to 28 days depending on the cohort. Least squares mean and 90% confidence intervals of maximum change from baseline in moving average of heart rate over 4 hours postdose (MA4 HR) are presented in Table 14.
# [8] = target: β3-AR (Homo sapiens, UniProt P13945); experiment: Adenylyl cyclase functional assay in CHO cells stably expressing human β3-AR; type: cell-based; design: expressed in transfected cells
# Protocol: The degree of activation relative to a proven full agonist (isoproterenol) was measured along with the compound EC50.
# [9] = Renal impairment PK, single 100 mg; design: AUC0-inf GMR vs healthy / Cmax GMR vs healthy: unit not given beside the values;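 note: pharmacokinetic parameters in patients with renal impairment of differing severity, statistically compared against matched healthy subjects as controls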
# [10] = human, in vivo
# Excerpt: The accumulation potential of circulating metabolites in plasma was not estimated due to insufficient data from later time points to enable estimation of half-life.
# [11] = target: CYP3A4 (Homo sapiens, UniProt P08684); experiment: In vitro CYP metabolism; type: in vitro ADME
# [12] = target: β2-AR (Homo sapiens, UniProt P07550); experiment: Competition binding assay, recombinant β2-AR
# [13] = Effect of food on oral absorption; type: in vivo, human; settings: for Cmax / Tmax / AUC(0-t) / AUC(0-inf): human, plasma, oral; for AUC(0-t): read-out: AUC0-24
# [14] = Aqueous vs non-aqueous tablet bioequivalence, 50 mg; type: in vivo, human
# Excerpt: An open-label, single-dose, randomized, two-period, two-treatment, two-sequence, crossover Phase 1 study evaluated the relative bioequivalence of two types of tablets with slightly different composition: aqueous tablet (test) and non-aqueous tablet (reference).
# [15] = target: T1, β1-AR (Homo sapiens, UniProt P08588); experiment: Competition binding assay, recombinant β1-AR
# T1 construct: expressed in transfected cells; membranes prepared from them
# [16] = 100 mg QD + tolterodine ER 4 mg QD
# [17] = 100 mg single + diltiazem ER 240 mg QD
# [18] = 100 mg single + ketoconazole 200 mg every 12 hours
# [19] = 100 mg, 100 mg QD alone (tolterodine study)
# [20] = 100 mg, 100 mg single, alone (diltiazem study)
# [21] = 100 mg, 100 mg single, alone (ketoconazole study)
# [22] = 150 mg QD + tolterodine ER 4 mg QD
# [23] = 150 mg, 150 mg QD alone (tolterodine study)
# [24] = with multiple doses of diltiazem
# [25] = 50 mg, high-fat meal, non-Japanese young males
# [26] = 50 mg, standard Japanese breakfast, Japanese young males
# [27] = 150 mg multiple dose, middle-aged and elderly females, Day 1
# [28] = female, 150 mg, 150 mg multiple dose day 14, middle-aged females, fed
# [29] = male, 50 mg, single 50 mg, Japanese young males, fed
# [30] = male, 50 mg, single 50 mg, non-Japanese young males, fed
# β3-AR, sequence (P13945 whole entry): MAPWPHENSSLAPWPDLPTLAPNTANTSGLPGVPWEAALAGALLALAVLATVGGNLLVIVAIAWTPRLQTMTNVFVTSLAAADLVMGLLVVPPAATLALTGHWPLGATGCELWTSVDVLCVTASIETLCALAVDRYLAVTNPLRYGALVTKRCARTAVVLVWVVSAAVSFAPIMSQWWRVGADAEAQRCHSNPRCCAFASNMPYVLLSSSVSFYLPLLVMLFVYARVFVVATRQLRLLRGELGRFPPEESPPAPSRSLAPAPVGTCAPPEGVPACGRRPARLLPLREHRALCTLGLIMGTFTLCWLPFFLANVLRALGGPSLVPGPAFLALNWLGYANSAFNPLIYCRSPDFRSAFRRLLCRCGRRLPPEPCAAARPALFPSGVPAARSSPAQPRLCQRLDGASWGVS
# β2-AR, sequence (P07550 whole entry): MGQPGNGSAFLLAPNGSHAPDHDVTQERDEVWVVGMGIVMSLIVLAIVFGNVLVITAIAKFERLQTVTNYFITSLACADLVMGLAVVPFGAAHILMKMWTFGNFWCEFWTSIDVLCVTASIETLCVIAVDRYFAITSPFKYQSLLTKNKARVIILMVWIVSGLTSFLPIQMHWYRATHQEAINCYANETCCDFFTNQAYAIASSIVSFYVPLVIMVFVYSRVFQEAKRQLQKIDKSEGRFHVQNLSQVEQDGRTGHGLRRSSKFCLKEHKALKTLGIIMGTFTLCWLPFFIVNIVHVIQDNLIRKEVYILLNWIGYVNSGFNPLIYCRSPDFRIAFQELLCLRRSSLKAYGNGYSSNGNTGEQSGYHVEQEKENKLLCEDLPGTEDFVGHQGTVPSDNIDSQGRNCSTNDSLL
# T1 sequence (P08588 whole entry): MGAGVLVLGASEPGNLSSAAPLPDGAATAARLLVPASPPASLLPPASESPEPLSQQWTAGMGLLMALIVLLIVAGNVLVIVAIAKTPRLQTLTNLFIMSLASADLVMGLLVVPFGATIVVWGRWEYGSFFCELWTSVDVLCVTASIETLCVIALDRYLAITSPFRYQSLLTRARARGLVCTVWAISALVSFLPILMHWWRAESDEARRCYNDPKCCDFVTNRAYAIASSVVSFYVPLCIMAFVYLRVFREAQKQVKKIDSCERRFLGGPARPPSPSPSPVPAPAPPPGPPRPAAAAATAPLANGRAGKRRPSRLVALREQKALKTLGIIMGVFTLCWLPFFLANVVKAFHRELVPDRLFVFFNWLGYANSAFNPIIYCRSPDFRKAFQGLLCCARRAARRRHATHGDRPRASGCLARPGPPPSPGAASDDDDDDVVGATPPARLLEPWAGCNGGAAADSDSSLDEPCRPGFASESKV
# CYP3A4, sequence (P08684 whole entry): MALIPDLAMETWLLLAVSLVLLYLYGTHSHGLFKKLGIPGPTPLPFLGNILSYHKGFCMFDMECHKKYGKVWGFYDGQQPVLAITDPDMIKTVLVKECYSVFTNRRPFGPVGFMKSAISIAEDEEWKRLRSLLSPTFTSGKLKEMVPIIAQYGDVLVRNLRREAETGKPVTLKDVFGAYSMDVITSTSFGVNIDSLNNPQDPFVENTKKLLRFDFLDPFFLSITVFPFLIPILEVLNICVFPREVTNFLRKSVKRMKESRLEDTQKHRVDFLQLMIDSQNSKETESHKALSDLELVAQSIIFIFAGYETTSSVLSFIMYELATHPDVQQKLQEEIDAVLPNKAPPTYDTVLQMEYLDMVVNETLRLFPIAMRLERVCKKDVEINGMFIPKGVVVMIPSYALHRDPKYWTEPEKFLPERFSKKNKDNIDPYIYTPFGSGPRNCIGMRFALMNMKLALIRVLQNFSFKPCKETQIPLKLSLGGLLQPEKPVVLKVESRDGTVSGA
# CYP2D6, sequence (P10635 whole entry): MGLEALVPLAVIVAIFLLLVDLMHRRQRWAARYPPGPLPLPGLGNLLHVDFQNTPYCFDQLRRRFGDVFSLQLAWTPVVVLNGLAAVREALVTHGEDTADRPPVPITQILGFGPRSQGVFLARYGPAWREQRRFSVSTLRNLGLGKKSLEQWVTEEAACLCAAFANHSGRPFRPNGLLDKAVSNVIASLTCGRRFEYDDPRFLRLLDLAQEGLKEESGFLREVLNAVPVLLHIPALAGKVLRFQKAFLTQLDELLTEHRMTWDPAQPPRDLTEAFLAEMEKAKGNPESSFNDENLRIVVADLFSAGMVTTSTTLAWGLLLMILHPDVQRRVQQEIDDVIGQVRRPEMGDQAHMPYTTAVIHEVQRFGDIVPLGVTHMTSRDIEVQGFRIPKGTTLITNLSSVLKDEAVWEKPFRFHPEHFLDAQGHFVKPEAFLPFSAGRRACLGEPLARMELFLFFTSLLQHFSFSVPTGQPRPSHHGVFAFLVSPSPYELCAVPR
smiles,measurement,setting,value
"O=C(Nc1ccc(C[C@@H]2CC[C@H]([C@H](O)c3ccccc3)N2)cc1)[C@@H]1CCc2nccc(=O)n21 [Vibegron, (6S)-N-[4-[[(2S,5R)-5-[(R)-hydroxy(phenyl)methyl]pyrrolidin-2-yl]methyl]phenyl]-4-oxo-7,8-dihydro-6H-pyrrolo[1,2-a]pyrimidine-6-carboxamide]",tolerability,[1],generally well tolerated
same,Cmax,[2]; in vivo,107 ng/mL
same,Cmax,"[2]; plasma, oral",152 ng/mL
same,half-life,"[2]; plasma, oral",131 h
same,CYP2D6 inhibition,[3],does not inhibit CYP2D6
same,effect on QTc or blood pressure,[4],no clinically meaningful effect
same,tolerability,"[5]; Phase 2b, 3 to 100 mg",generally well tolerated
same,"≥1 AE, subjects","[5]; first 12 weeks, dose group by column",107 n
same,frequency of injuries,[5]; in vivo,0.9%
same,half-life,"[6]; in vivo, 100 mg, vibegron alone",75 h
same,half-life,"[6]; in vivo, with diltiazem",75.4 h
same,half-life,"[6]; in vivo, with ketoconazole",80.2 h
same,AUC,[6]; [16],1790 ng·h/mL
same,Cmax,[6]; [16],163 ng/mL
same,AUC,[6]; [17],2170 ng·h/mL
same,Cmax,[6]; [17],167 ng/mL
same,AUC,[6]; [18],2850 ng·h/mL
same,Cmax,[6]; [18],251 ng/mL
same,AUC,[6]; [19],1660 ng·h/mL
same,Cmax,[6]; [19],158 ng/mL
same,AUC,[6]; [20],1330 ng·h/mL
same,Cmax,[6]; [20],99.8 ng/mL
same,AUC,[6]; [21],1370 ng·h/mL
same,Cmax,[6]; [21],113 ng/mL
same,AUC,[6]; [22],3100 ng·h/mL
same,Cmax,[6]; [22],304 ng/mL
same,AUC,[6]; [23],2780 ng·h/mL
same,Cmax,[6]; [23],269 ng/mL
same,effect of tolterodine ER 4 mg on pharmacokinetics of vibegron,[6]; in vivo,no effect
same,higher exposure,[6]; with a potent CYP3A/P-gp inhibitor,~2 fold
same,GM AUC0-inf increase,[6]; [24],63%
same,GM Cmax increase,[6]; [24],68%
same,Maximum MA4 HR (LS mean),[7]; 25 mg,1.47 bpm
same,"Maximum MA4 HR, difference from placebo",[7]; 25 mg,−1.60 bpm
same,Maximum MA4 HR (LS mean),[7]; 50 mg,1.50 bpm
same,"Maximum MA4 HR, difference from placebo",[7]; 50 mg,−1.57 bpm
same,Maximum MA4 HR (LS mean),[7]; 100 mg,3.28 bpm
same,Maximum MA4 HR (LS mean),[7]; 150 mg,3.17 bpm
same,"Maximum MA4 HR, difference from placebo",[7]; 150 mg,0.10 bpm
same,Maximum MA4 HR (LS mean),[7]; 200 mg,5.67 bpm
same,"Maximum MA4 HR, difference from placebo",[7]; 200 mg,2.60 bpm
same,Maximum MA4 HR (LS mean),[7]; 300 mg,9.06 bpm
same,"Maximum MA4 HR, difference from placebo",[7]; 300 mg,5.98 bpm
same,Maximum MA4 HR (LS mean),[7]; 400 mg,10.33 bpm
same,"Maximum MA4 HR, difference from placebo",[7]; 400 mg,7.26 bpm
same,EC50,[8],1.1 nM
same,EC50,[8]; 40% human serum,1.7 nM
same,AUC(0-inf),[9]; healthy matched controls,1540 ng·h/mL
same,Apparent terminal t1/2,[9]; healthy matched controls,98.8 h
same,CL/F,[9]; healthy matched controls,64.9 L/h
same,CLR,[9]; healthy matched controls,10.4 L/h
same,Fe[urine]48 hr,[9]; healthy matched controls,7.9%
same,AUC0-inf GMR vs healthy,[9]; mild renal impairment,1.49
same,AUC0-inf higher than healthy controls,[9]; mild renal impairment,49%
same,AUC(0-inf),[9]; mild renal impairment,2290 ng·h/mL
same,Apparent terminal t1/2,[9]; mild renal impairment,96.2 h
same,CL/F,[9]; mild renal impairment,43.6 L/h
same,CLR,[9]; mild renal impairment,6.3 L/h
same,CLR reduction vs healthy controls,[9]; mild renal impairment,39%
same,Cmax,[9]; mild renal impairment,210 ng/mL
same,Cmax GMR vs healthy,[9]; mild renal impairment,1.96
same,Cmax higher than healthy controls,[9]; mild renal impairment,96%
same,Fe[urine]48 hr,[9]; mild renal impairment,8.5%
same,Tmax,[9]; mild renal impairment,1.0 h
same,AUC0-inf GMR vs healthy,[9]; moderate renal impairment,2.06
same,AUC0-inf higher than healthy controls,[9]; moderate renal impairment,106%
same,AUC(0-inf),[9]; moderate renal impairment,3170 ng·h/mL
same,Apparent terminal t1/2,[9]; moderate renal impairment,108 h
same,CL/F,[9]; moderate renal impairment,31.5 L/h
same,CLR,[9]; moderate renal impairment,3.6 L/h
same,CLR reduction vs healthy controls,[9]; moderate renal impairment,65%
same,Cmax,[9]; moderate renal impairment,180 ng/mL
same,Cmax GMR vs healthy,[9]; moderate renal impairment,1.68
same,Cmax higher than healthy controls,[9]; moderate renal impairment,68%
same,Fe[urine]48 hr,[9]; moderate renal impairment,5.5%
same,Tmax,[9]; moderate renal impairment,1.3 h
same,mean increase in AUC vs normal renal function,[9]; moderate renal impairment,1.6 fold
same,AUC0-inf GMR vs healthy,[9]; severe renal impairment,1.83
same,AUC0-inf higher than healthy controls,[9]; severe renal impairment,83%
same,AUC(0-inf),[9]; severe renal impairment,2820 ng·h/mL
same,CL/F,[9]; severe renal impairment,35.5 L/h
same,CLR,[9]; severe renal impairment,1.9 L/h
same,CLR reduction vs healthy controls,[9]; severe renal impairment,82%
same,Cmax GMR vs healthy,[9]; severe renal impairment,1.42
same,Cmax higher than healthy controls,[9]; severe renal impairment,42%
same,Fe[urine]48 hr,[9]; severe renal impairment,2.1%
same,Tmax,[9]; severe renal impairment,0.5 h
same,dose recovered in feces,[10],approximately 59%
same,dose recovered in urine,[10],~20%
same,total recovery of radioactivity in excreta,[10],79%
same,share of plasma radioactivity,[10]; 2 hr,~78%
same,share of plasma radioactivity,[10]; 4 hr,~73%
same,CYP responsible for in vitro metabolism,[11],CYP3A4 is the predominant CYP responsible for in vitro metabolism
same,binding to β2-AR,[12],does not bind
same,"AUC0-inf reduction, fed vs fasted",[13]; [25],46%
same,"Cmax reduction, fed vs fasted",[13]; [25],67%
same,"delay in Tmax, fed vs fasted",[13]; [25],~1 h
same,"AUC0-inf reduction, fed vs fasted",[13]; [26],37%
same,"Cmax reduction, fed vs fasted",[13]; [26],52%
same,Ctrough,"[13]; 150 mg multiple dose day 14, middle-aged females, fed",65.3 ± 7.87 ng/mL
same,AUC0-24 reduction with food vs fasted,"[13]; 150 mg multiple dose, females, Day 14",~20%
same,AUC0-24 with food compared to fasted,[13]; [27],~42%
same,Cmax with food compared to fasted,[13]; [27],59%
same,Cmax,[13]; [28],185 ± 32.3 ng/mL
same,Tmax,[13]; [28],6 h
same,AUC(0-t),[13]; [28],2540 ± 334 ng·h/mL
same,AUC(0-inf),[13]; [29],605 ± 222 ng·h/mL
same,Cmax,[13]; [29],36.2 ± 33.3 ng/mL
same,AUC(0-t),[13]; [29],226 ± 112 ng·h/mL
same,AUC(0-inf),[13]; [30],316 ± 127 ng·h/mL
same,Cmax,[13]; [30],7.6 ± 2.27 ng/mL
same,Tmax,[13]; [30],3 h
same,AUC(0-t),[13]; [30],90.7 ± 22.9 ng·h/mL
same,AUC0-inf GMR test/reference,[14]; 50 mg,100.2%
same,Cmax GMR test/reference,[14]; 50 mg,107.7%
same,AUC(0-inf),"[14]; 50 mg test, aqueous tablet (PMFII)",671 ng·h/mL
same,Cmax,"[14]; human, plasma, po, 50 mg, 50 mg reference, non-aqueous tablet (PMF1)",38 ng/mL
same,Cmax,"[14]; human, plasma, po, 50 mg, 50 mg test, aqueous tablet (PMFII)",41 ng/mL
same,AUC(0-inf),"[14]; human, plasma, po, 50 mg, read-out: AUC0-inf",671 ng·h/mL
same,binding to β1-AR,[15],does not bind
